Laboratory results as given in US20060241019A1, “Long lasting insulin derivatives and methods thereof” (priority 2003, published 2006).

System: Epididymal fat cells from Wistar rats
Assay: Glucose uptake in epididymal fat cells
Type: cell-based
Conditions: D-[3-3H]Glucose incorporation, rat epididymal fat cells, 2 hour incubation
Method: In addition, glucose uptake in an other source of adipocytes was used to evaluate the in vitro activity. […] The tissue (0.03 g/ml) is degraded by collagenase in modified HEPES solution pH 7.4 at 37° C. Test compound and/or vehicle is incubated with 500 μl aliquots in modified HEPES buffer pH 7.4 and D-[3-3H]Glucose (2.5 μCi/ml) is then added for 2 hour incubation. Test compound-induced the increase of glucose incorporation by more than 50 percent or more (≧50%) relative to the control 2 nM insulin response, indicates possible insulin receptor agonist activity. […] Compounds are screened at 10, 1, 0.1, 0.01 and 0.001 μM.

EC50: 15.4 nM
Substance: (Phe B1)-MPA-(AEES)2-Insulin [Example VI]
